# According to US20080096807A1, “Cyclic vasoactive intestinal peptide receptor-2 agonists” (priority 2006, published 2008):
# Bridge positions count the residues as written; N and C are the ends. Square brackets hold non-standard residues; d marks the D form. Peptide text beside a SMILES is read from it. ξ: configuration not given here. Thr(3ξ) = CC(O)[C@H](N)C(=O)O; Nle = CCCC[C@H](N)C(=O)O
# Assays:
# [1] = target: T1, human neutrophil elastase (Homo sapiens, UniProt P08246); experiment: Peptide stability to neutrophil elastase (RP HPLC ESI MS); conditions: halftime with human neutrophil elastase 1 to 2 μg/mL in PBS, ambient temperature, normalized to halftime of the reference standard
# T1 sequence (P08246 30-247 limits assumed): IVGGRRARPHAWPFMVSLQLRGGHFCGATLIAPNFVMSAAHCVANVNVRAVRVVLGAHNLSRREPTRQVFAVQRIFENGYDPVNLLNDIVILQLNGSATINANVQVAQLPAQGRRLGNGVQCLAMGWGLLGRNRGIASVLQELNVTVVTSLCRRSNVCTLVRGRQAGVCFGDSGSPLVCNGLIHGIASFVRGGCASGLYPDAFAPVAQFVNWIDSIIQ
# VPAC2 receptor = target: T2, VPAC2 receptor (Homo sapiens, UniProt P41587); experiment: Sup-T1 cAMP agonist assay; type: cell-based; conditions: human T-lymphoid cell line Sup-T1 expressing VPAC2 receptor; cAMP EIA; 5 min at room temperature; read-out: Sup-T1 cAMP EC50
# T2 construct: The human T-lymphoid cell line Sup-Ti, which expresses the VPAC2 receptor; host or cells: Sup-T1 (Sup-Ti [sic]) human T-lymphoid cell line
# T2 sequence (P41587 24-438): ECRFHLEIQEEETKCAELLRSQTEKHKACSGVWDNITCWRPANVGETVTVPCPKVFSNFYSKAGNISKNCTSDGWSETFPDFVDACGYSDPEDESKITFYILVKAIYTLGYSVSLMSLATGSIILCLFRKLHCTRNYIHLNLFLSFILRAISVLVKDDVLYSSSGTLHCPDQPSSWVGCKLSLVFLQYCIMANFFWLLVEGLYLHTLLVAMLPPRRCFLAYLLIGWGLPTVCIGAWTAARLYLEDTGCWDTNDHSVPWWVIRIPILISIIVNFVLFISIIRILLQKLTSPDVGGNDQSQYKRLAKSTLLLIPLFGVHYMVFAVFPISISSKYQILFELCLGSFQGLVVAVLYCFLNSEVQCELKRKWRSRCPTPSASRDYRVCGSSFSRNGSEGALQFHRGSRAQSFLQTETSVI
# Procedure: The human T-lymphoid cell line Sup-Ti, which expresses the VPAC2 receptor, was obtained from the American Type Culture Collection (ATCC, CRL-1942) and maintained in growth medium at densities between 0.2 and 2×10^6 cells/ml in a 37° C. CO2 incubator. The growth medium was RPMI 1640 (Invitrogen) supplemented with 25 mM HEPES buffer and 10% fetal bovine serum (Gemini Bioproducts).
# To evaluate VPAC2 agonist compound activity, cells in log-phase growth were washed once with growth medium at room temperature and plated into 96-well plates at a density of 4×10^4 cells per well in 150 uL of growth medium. Fifty uL of the compounds to be tested, prepared at appropriate concentrations in growth medium, were then added to designated wells. After 5 min at room temperature, the cells were lysed by adding 25 uL of lysis reagent 1A (cAMP Biotrak EIA system, Amersham Biosciences, RPN225) to each well. The 96-well plates were kept at room temperature for 10 min with shaking and then stored at 4° C. until analysis for cAMP (within 2 hr).
# Cyclic AMP levels were determined in 100 uL of each lysate using the cAMP Biotrak Enzymeimmunoassay (EIA) kit according to the manufacture's instructions (Amersham Biosciences, RPN225). The activity of each VPAC2 agonist compound (EC50 value) was estimated by fitting the 7-concentration dose response data to a sigmoidal dose-response equation provided by the GraphPad Prism program (GraphPad Software, Inc.).
# [2] = tested on: LPS-induced lung inflammation in male C57BL/6 mice; experiment: LPS-induced lung inflammation in male C57BL/6 mice (BAL neutrophilia); type: in vivo; conditions: Dose 0.01%, BAL fluid neutrophilia
# Procedure: C57bl/6 mice are pretreated with vehicle or drug prior to an aerosol expose to lipopolysacchride (LPS, 500 μg/ml in sterile saline) for 15-30 minutes. The aerosol is generated by a Pari Ultra neb jet nebulizer, the outlet of which is connected to a small clear plastic chamber [H×W×D, 10.7×25.7×11 cm (4×10×4.5 in)] containing the animals. Bronchoalveolar lavage (BAL) is performed 24 hr later to determine the intensity of cell inflammation. BAL procedure is performed as described below.
# Mice are pretreated with vehicle or drug prior to an intranasal administration of lipopolysacchride (0.05-0.3 mg/kg in sterile saline; 50 μl total volume, 25 μl/nostril). Intranasal administration is performed by presenting small droplets of the dosing solution at the nostril using a 25-50 μl eppendorff pipet. BAL is performed 3 to 24 h post LPS challenged as described above to determine the intensity of cell inflammation.
# 24 h following LPS exposure, animals are anesthetized with pentobarbital (80-100 mg/kg, i.p.), ketamine/xyzaline (80-120 mg/kg/2-4 mg/kg, i.p.) or urethane (1.5-2.4 g/kg, i.p.); and through a small midline neck incision (15-20 mm), the trachea is exposed and cannulated with 20-gauge tubing adapter. Lungs are lavaged with 2×1 ml sterile Hank's balanced salt solution without Ca++ and Mg++(HBSS). Lavage fluid is recovered after 30 sec by gentle aspiration and pooled for each animal. Samples are then centrifuged at 2000 rpm for 10 minutes at 5° C. Supernatant is aspirated, and red blood cells are lysed from the resulting pellet with 0.5 ml distilled water for 30 sec before restoring osmolarity to the remaining cells by the addition of 5 ml of HBSS. Samples are recentrifuged at 2000 rpm for 10 minutes at 5° C. and supernatant aspirated. The resulting pellet is resuspended in 1 ml of HBSS. Total cell number is determined by Trypan Blue (Sigma Chemical, St. Louis, Mo.) exclusion from an aliquot of cell suspension using a hemocytometer or coulter counter. For differential cell counts, an aliquot of the cell suspension is centrifuged in a Cytospin (5 min, 1300 rpm; Shandon Southern Instruments, Sewickley, Pa.) and the slides fixed and stained with a modified Wright's stain (Hema 3 stain kit, Fisher Scientific). Standard morphological criteria is used in classifying at least 300 cells under light microscopy. Data in Table 3 is expressed as BAL cells×10^4/animal for neutrophils and total cells, or percent inhibition of the LPS induced BAL fluid neutrophilia response.
SMILES,Relative elastase stability [1],EC50 (VPAC2 receptor) [nM],Inhibition of LPS-induced neutrophilia [2]
CCCC[C@H](NC(=O)[C@H](C)NC(=O)[C@H](CCCCN)NC(=O)[C@H](CCCNC(=N)N)NC(=O)[C@H](CC(C)C)NC(=O)[C@H](CCCCN)NC(=O)[C@@H](NC(=O)[C@H](Cc1ccc(O)cc1)NC(=O)[C@H](CC(N)=O)NC(=O)[C@H](CCC(=O)O)NC(=O)[C@@H](NC(=O)[C@H](Cc1ccccc1)NC(=O)[C@H](CO)NC(=O)[C@H](C)NC(=O)[C@H](CC(=O)O)NC(=O)[C@H](CO)NC(=O)[C@H](Cc1c[nH]cn1)NC(C)=O)C(C)O)C(C)O)C(=O)N[C@@H](CCC(=O)O)C(=O)N[C@@H](C)C(=O)N[C@@H](CCCCN)C(=O)N[C@H]1CCCCNC(=O)C[C@@H](C(=O)N[C@@H](CC(C)C)C(=O)N[C@@H](CCCCN)C(=O)N[C@@H](CCCCN)C(=O)NCC(=O)NCC(=O)N[C@H](C(N)=O)C(C)O)NC(=O)[C@H](CC(N)=O)NC(=O)[C@H](CC(C)C)NC(=O)[C@H](Cc2ccc(O)cc2)NC1=O (stereo partly shown) [Example 10] (Ac-HSDASF[Thr(3ξ)]ENY[Thr(3ξ)]KLRKA[Nle]EAKKYLNDLKKGG[Thr(3ξ)]-NH2; lactam 21-25),7.4,447,++ (++ >30%)
CCCC[C@H](NC(=O)[C@H](CCC(N)=O)NC(=O)[C@H](CCCCN)NC(=O)[C@H](CCCNC(=N)N)NC(=O)[C@H](CC(C)C)NC(=O)[C@H](CCCCN)NC(=O)[C@@H](NC(=O)[C@H](Cc1ccc(O)cc1)NC(=O)[C@H](CC(N)=O)NC(=O)[C@H](CCC(=O)O)NC(=O)[C@@H](NC(=O)[C@H](Cc1ccccc1)NC(=O)[C@H](CO)NC(=O)[C@H](C)NC(=O)[C@H](CC(=O)O)NC(=O)[C@H](CO)NC(=O)[C@H](Cc1c[nH]cn1)NC(C)=O)C(C)O)C(C)O)C(=O)N[C@@H](CCC(=O)O)C(=O)N[C@@H](C)C(=O)N[C@@H](CCCCN)C(=O)N[C@H]1CCCCNC(=O)C[C@@H](C(=O)N[C@@H](CC(C)C)C(=O)N[C@@H](CCCCN)C(=O)N[C@@H](CCCCN)C(=O)NCC(=O)NCC(=O)N[C@H](C(N)=O)C(C)O)NC(=O)[C@H](CC(N)=O)NC(=O)[C@H](CC(C)C)NC(=O)[C@H](Cc2ccc(O)cc2)NC1=O (stereo partly shown) [Example 7] (Ac-HSDASF[Thr(3ξ)]ENY[Thr(3ξ)]KLRKQ[Nle]EAKKYLNDLKKGG[Thr(3ξ)]-NH2; lactam 21-25),16.4,632,++ (++ >30%)
CCCC[C@H](NC(=O)[C@H](CCCNC(=N)N)NC(=O)[C@H](CCCCN)NC(=O)[C@H](CCCNC(=N)N)NC(=O)[C@H](CC(C)C)NC(=O)[C@H](CCCCN)NC(=O)[C@@H](NC(=O)[C@H](Cc1ccc(O)cc1)NC(=O)[C@H](CC(N)=O)NC(=O)[C@H](CCC(=O)O)NC(=O)[C@@H](NC(=O)[C@H](Cc1ccccc1)NC(=O)[C@H](CO)NC(=O)[C@H](C)NC(=O)[C@H](CC(=O)O)NC(=O)[C@H](CO)NC(=O)[C@H](Cc1c[nH]cn1)NC(C)=O)C(C)O)C(C)O)C(=O)N[C@@H](CCCCN)C(=O)N[C@@H](C)C(=O)N[C@@H](CCCCN)C(=O)N[C@H]1CCCCNC(=O)C[C@@H](C(=O)N[C@@H](CC(C)C)C(=O)N[C@@H](CCCCN)C(=O)N[C@@H](CCCCN)C(=O)NCC(=O)NCC(=O)N[C@H](C(N)=O)C(C)O)NC(=O)[C@H](CC(N)=O)NC(=O)[C@H](CC(C)C)NC(=O)[C@H](Cc2ccc(O)cc2)NC1=O (stereo partly shown) [Example 16] (Ac-HSDASF[Thr(3ξ)]ENY[Thr(3ξ)]KLRKR[Nle]KAKKYLNDLKKGG[Thr(3ξ)]-NH2; lactam 21-25),4.4,1030,

# Compounds with a lower EC50 (VPAC2 receptor), results first:
Relative elastase stability [1],EC50 (VPAC2 receptor) [nM],SMILES,Inhibition of LPS-induced neutrophilia [2]
2.4,16.8,CCCC[C@H](NC(=O)[C@H](CCC(N)=O)NC(=O)[C@H](CCCCN)NC(=O)[C@H](CCCNC(=N)N)NC(=O)[C@H](CC(C)C)NC(=O)[C@H](CCCCN)NC(=O)[C@@H](NC(=O)[C@H](Cc1ccc(O)cc1)NC(=O)[C@H](CC(N)=O)NC(=O)[C@H](CCC(=O)O)NC(=O)[C@@H](NC(=O)[C@H](Cc1ccccc1)NC(=O)[C@H](CO)NC(=O)[C@H](C)NC(=O)[C@H](CC(=O)O)NC(=O)[C@H](CO)NC(=O)[C@H](Cc1c[nH]cn1)NC(C)=O)C(C)O)C(C)O)C(=O)N[C@@H](C)C(=O)N[C@@H](C)C(=O)N[C@@H](CCCCN)C(=O)N[C@H]1CCCCNC(=O)C[C@@H](C(=O)N[C@@H](CC(C)C)C(=O)N[C@@H](CC(C)C)C(=O)N[C@@H](CC(N)=O)C(=O)NCC(=O)NCC(=O)N[C@H](C(N)=O)C(C)O)NC(=O)[C@H](CC(N)=O)NC(=O)[C@H](CC(C)C)NC(=O)[C@H](Cc2ccc(O)cc2)NC1=O (stereo partly shown) [Example 11] (Ac-HSDASF[Thr(3ξ)]ENY[Thr(3ξ)]KLRKQ[Nle]AAKKYLNDLLNGG[Thr(3ξ)]-NH2; lactam 21-25),++ (++ >30%)
4.5,98,CCCC[C@H](NC(=O)[C@H](CCC(N)=O)NC(=O)[C@H](CCCCN)NC(=O)[C@H](CCCNC(=N)N)NC(=O)[C@H](CC(C)C)NC(=O)[C@H](CCCCN)NC(=O)[C@@H](NC(=O)[C@H](Cc1ccc(O)cc1)NC(=O)[C@H](CC(N)=O)NC(=O)[C@H](CCC(=O)O)NC(=O)[C@@H](NC(=O)[C@H](Cc1ccccc1)NC(=O)[C@H](CC(=O)O)NC(=O)[C@H](C)NC(=O)[C@H](CC(=O)O)NC(=O)[C@H](CO)NC(=O)[C@H](Cc1c[nH]cn1)NC(C)=O)C(C)O)C(C)O)C(=O)N[C@@H](C)C(=O)N[C@@H](C)C(=O)N[C@@H](CCCCN)C(=O)N[C@H]1CCCCNC(=O)C[C@@H](C(=O)N[C@@H](CC(C)C)C(=O)N[C@@H](CCCCN)C(=O)N[C@@H](CCCCN)C(=O)NCC(=O)NCC(=O)N[C@H](C(N)=O)C(C)O)NC(=O)[C@H](CC(N)=O)NC(=O)[C@H](CC(C)C)NC(=O)[C@H](Cc2ccc(O)cc2)NC1=O (stereo partly shown) [Example 3] (Ac-HSDADF[Thr(3ξ)]ENY[Thr(3ξ)]KLRKQ[Nle]AAKKYLNDLKKGG[Thr(3ξ)]-NH2; lactam 21-25),
